{
  "source": "paper PMC11522085",
  "about": "“Studies on the mechanisms of action of MR33317” (Naunyn-Schmiedeberg's Archives of Pharmacology, 2024)",
  "target": "T1, 5-HT4-receptor (5-HT4B membrane preparations) (Homo sapiens, UniProt Q13639)",
  "T1 construct": "gene HTR4; 5-HT4B membrane preparations (HTS110M, Millipore), recombinant",
  "T1 sequence (Q13639 whole entry)": "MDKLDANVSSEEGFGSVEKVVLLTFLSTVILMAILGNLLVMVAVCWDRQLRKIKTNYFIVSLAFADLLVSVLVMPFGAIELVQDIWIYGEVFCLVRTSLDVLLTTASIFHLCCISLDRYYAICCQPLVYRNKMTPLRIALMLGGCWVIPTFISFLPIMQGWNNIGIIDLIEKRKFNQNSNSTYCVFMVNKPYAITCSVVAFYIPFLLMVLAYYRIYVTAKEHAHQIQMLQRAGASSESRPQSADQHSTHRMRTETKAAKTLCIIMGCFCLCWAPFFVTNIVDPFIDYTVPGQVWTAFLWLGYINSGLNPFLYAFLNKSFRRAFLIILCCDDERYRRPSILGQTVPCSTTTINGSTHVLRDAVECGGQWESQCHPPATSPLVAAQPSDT",
  "test": "radioligand-type competition binding on recombinant 5-HT4B membranes (filtration); partial agonist in cAMP assay",
  "source_text": "radioligand-type competition binding on recombinant 5-HT4B membranes (filtration); partial agonist in cAMP assay on 5-HT4-receptor (5-HT4B membrane preparations) | MR33317 bound with high affinity to recombinant 5-HT4-receptor.",
  "data": [
    {"smiles": "COc1cc(N)c(Cl)cc1C(=O)CCC1CCN(Cc2cccc(N)c2)CC1", "note": "[MR33317]", "values": [
      {"measurement": "Ki", "value": "42.5 ± 2.6", "unit": "nM"}
    ]}
  ]
}
